Laboratory results as given in patent US20230339854A1, “Negative Allosteric Modulation of GluN3-Containing N-Methyl-D-Aspartate Receptors” (Emory University, priority 2020, published 2023).
Entries after “also recorded” stand apart in the source; their conditions may differ. Like-named read-outs stand apart in the source and are kept apart here. Blank lines part the entries; values can stand above or below the compound they belong to.

Legend:
[1] = target: T1, human GluN1^FA,TL/GluN3A receptors (Homo sapiens, UniProt Q8TCU5); assay: Two-electrode voltage-clamp recordings of GluN1^FA,TL/GluN3A receptors in Xenopus oocytes; assay type: cell-based; details: for Slope: concentration-response curve; for Slope / minimum: 1000 μM glycine; for % Inhibition GluN1^FATL/GluN3A / Max Inhibition: fitted maximum at saturating test compound; for minimum: residual response at saturating concentration; for Max Inhibition: 100 × (1 − Idrug/Icontrol); for hGluN1^FA,TL/hGluN3A (100 × Idrug/Icontrol): @ 10 μM; for remaining activity at 30 µM: read-out: hGluN1^FA,TL/hGluN3A (100 × Idrug/Icontrol at 30 μM drug)
T1 construct: Human GluN3A (NP_597702.2) and rat GluN3B (NP_579842.2) were synthesized and subcloned into SP6 plasmids; expressed in transfected cells; host or cells: Xenopus laevis oocytes, cRNA injection (GluN1:GluN3 1:3)
Procedure, shortened: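 Human GluN1 with human GluN3A cRNA (1:3) in oocytes, recorded 2-5 days post-injection at 23° C, holding −40 mV, in Ba2+-containing recording solution pH 7.4. Compounds screened at 10 or 30 μM; those inhibiting >20% given concentration-response fits for IC50, Hill slope and residual inhibition.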

[2] = target: T2, rat GluN1-4a/GluN3B receptors (Rattus norvegicus, UniProt Q8VHN2); assay: Two-electrode voltage-clamp recordings of GluN1-4a/GluN3B receptors in the presence of CGP-78608 (Xenopus oocytes); assay type: cell-based; details: @ 10 μM drug; 0.5 μM CGP-78608
T2 construct: Human GluN3A (NP_597702.2) and rat GluN3B (NP_579842.2) were synthesized and subcloned into SP6 plasmids; expressed in transfected cells; host or cells: Xenopus laevis oocytes, cRNA injection
Description: (§1) cDNA encoding human wild-type (WT) GluN1-1a (GenBank accession numbers NP_015566, hereafter GluN1) and rat GluN1-1a (NP_058706.1) were synthesized and subcloned into pGEMHE plasmid; some experiments used the rat splice variant GluN1-4a (NP_001257531.1). Human GluN3A (NP_597702.2) and rat GluN3B (NP_579842.2) were synthesized and subcloned into SP6 plasmids. For most experiments, human GluN1 was co-expressed with human GluN3A, except for mutagenesis experiments where rat GluN1 was co-expressed with human GluN3A. Rat GluN1-4a was always expressed with rat GluN3B.
(§2) Defolliculated Xenopus laevis oocytes (stage V-VI) were obtained from Ecocyte BioScience (Austin, Texas), or prepared from commercially available Xenopus ovaries (Xenopus 1, Dexter, MI) as previously described (Hansen, et al., Mol. Pharmacol., 2013). A Drummond Nanoject II (Broomall, PA) was used to inject oocytes with cRNAs encoding GluN1 and GluN3 at a 1:3 ratio in RNase-free water. The cRNA was diluted as needed to give responses with amplitudes ranging between 200-2000 nA (0.2-10 ng total cRNA). Following cRNA injection, the oocytes were stored at 15-19° C. in Barth's solution that contained (in mM) 88 NaCl, 2.4 NaHCO3, 1 KCl, 0.33 Ca(NO3)2, 0.41 CaCl2), 0.82 MgSO4, and 5 Tris-HCl (pH 7.4 with NaOH), supplemented with 1 μg/ml streptomycin (Invitrogen, Carlsbad, CA) and 100 μg/ml gentamicin (Fisher Scientific, Pittsburgh, PA). Recordings were performed 2-5 days following cRNA microinjection at room temperature (23° C.) using a two-electrode voltage-clamp amplifier (OC725, Warner Instrument, Hamilton, CT). The signal was low-pass filtered at 10-20 Hz (4-pole, −3 dB Bessel) and digitized at the Nyquist rate using PCI-6025E or USB-6212 BNC data acquisition boards (National Instruments, Austin, TX) using EasyOocyte (http://www.easyoocyte.io/). Oocytes were placed in a custom-made chamber and continuously perfused (2.5 ml/min) with oocyte recording solution containing (in mM) 90 NaCl, 1 KCl, 10 HEPES, 0.5-1.0 BaCl2, and 0.01 EDTA (pH 7.4 with NaOH). Solutions were applied by gravity, and solution exchange was controlled through a rotary valve (Hamilton, Reno, NV). Recording electrodes were filled with 0.3-3.0 M KCl, and current responses were recorded at a holding potential of −40 mV.
(§3) Response (%)=(100−minimum)/(1+([concentration]/IC50)^nH)+minimum (2) • where nH is the Hill slope, IC50 is the concentration that produces a half-maximal effect, and minimum is the degree of residual inhibition at a saturating concentration of the negative allosteric modulator.
(§4) Selected compounds were also screened in the same assay as EU1180-438 to determine their effect on GluN3B.

[3] = test system: GluN1/GluN2 NMDA receptors (GluN2A, GluN2B, GluN2C, GluN2D); assay: Recombinant GluN1/GluN2 NMDA receptors in Xenopus oocytes (selectivity); assay type: cell-based, rat
[4] = target: T3, rat GluN1-4a/GluN3B receptors (Rattus norvegicus, UniProt P35439+Q8VHN2); assay: Two-electrode voltage-clamp recordings of GluN1-4a/GluN3B receptors in the presence of CGP-78608 (Xenopus oocytes); assay type: cell-based; details: 0.5 μM CGP-78608
T3 construct: Human GluN3A (NP_597702.2) and rat GluN3B (NP_579842.2) were synthesized and subcloned into SP6 plasmids; expressed in transfected cells; host or cells: Xenopus laevis oocytes, cRNA injection
Description: as §1, §2, §3, §4

GluN1/GluN3 receptors = details: hydrochloride; cited from earlier work
GluN1 = GluN1 (Homo sapiens, UniProt Q05586); details: read-out: EC50 (glycine binding GluN1); cited from earlier work
[5] = pH 7.4, holding potential −40 mV, read-out: EC50, (95% CI) GluN1^FATL/GluN3A
[6] = responses activated by 1000 μM glycine, pH 7.4, read-out: IC50
[7] = hGluN1^FA,TL/hGluN3A, read-out: IC50 (95% CI) GluN3A
[8] = hGluN1^FA,TL/hGluN3A, read-out: IC50

T3 sequence (Q8VHN2 25-1002, other chains not shown): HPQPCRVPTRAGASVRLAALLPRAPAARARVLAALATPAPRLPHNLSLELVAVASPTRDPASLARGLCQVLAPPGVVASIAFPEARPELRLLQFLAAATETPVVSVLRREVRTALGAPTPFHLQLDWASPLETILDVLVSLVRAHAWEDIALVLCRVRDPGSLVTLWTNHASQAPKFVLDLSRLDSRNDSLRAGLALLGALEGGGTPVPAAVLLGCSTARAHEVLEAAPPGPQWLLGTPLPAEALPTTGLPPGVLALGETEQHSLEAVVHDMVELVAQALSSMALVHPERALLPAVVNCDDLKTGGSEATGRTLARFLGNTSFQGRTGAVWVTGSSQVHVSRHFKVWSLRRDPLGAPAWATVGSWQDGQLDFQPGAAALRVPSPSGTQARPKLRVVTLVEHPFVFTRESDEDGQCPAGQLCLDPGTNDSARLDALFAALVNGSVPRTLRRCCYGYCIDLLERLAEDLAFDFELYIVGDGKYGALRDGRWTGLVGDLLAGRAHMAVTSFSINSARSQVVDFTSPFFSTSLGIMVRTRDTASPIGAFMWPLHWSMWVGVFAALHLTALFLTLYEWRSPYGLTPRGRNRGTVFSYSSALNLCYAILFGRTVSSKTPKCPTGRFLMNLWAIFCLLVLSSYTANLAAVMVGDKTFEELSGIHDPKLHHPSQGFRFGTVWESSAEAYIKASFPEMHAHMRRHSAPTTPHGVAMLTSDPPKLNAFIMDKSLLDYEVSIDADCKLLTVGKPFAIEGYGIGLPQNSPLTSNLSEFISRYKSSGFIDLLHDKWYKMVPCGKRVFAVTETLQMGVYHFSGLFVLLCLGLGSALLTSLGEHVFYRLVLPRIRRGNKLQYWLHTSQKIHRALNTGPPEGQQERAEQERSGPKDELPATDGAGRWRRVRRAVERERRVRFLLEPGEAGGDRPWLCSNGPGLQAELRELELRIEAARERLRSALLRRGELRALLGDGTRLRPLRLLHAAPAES
T2 sequence (Q8VHN2 25-1002, other chains not shown): as above

Slope [1]: 1.4
% Inhibition GluN1^FATL/GluN3A ([1]; pH 7.4): 84%^a, (n = 20)
IC50 [1, 5]: 13 µM
minimum [1]: 16%
IC50 [1, 6]: 13 µM
rat GluN1-4a/GluN3B + CGP (100 × Idrug/Icontrol) [2]: 70% @ 10 μM drug
SMILES: COc1ccc(OCC(c2ccc(OC)cc2)N2Cc3ccccc3C2=O)cc1 (single isomer, unassigned; (-)) [(−) EU1180-438, 2-(2-(4-methoxyphenoxy)-1-(4-methoxyphenyl)ethyl)isoindolin-1-one]

activity toward recombinant GluN1/GluN2 NMDA receptors (GluN2A-D) ([3]; 30 μM): no detectable activity
Max Inhibition [1]: 44%
IC50 [1, 7]: 10.8 µM
rat GluN1-4a/GluN3B + CGP (100 × Idrug/Icontrol) [2]: 31% @ 10 μM drug
IC50 [4]: 3.57 µM
SMILES: COc1ccc(OCC(c2ccc(OC)cc2)N2CCc3ccccc3C2=O)cc1 (centres unmarked) [EU1180-489, 2-(2-(4-methoxyphenoxy)-1-(4-methoxyphenyl)ethyl)-3,4-dihydroisoquinolin-1(2H)-one]

Slope [1]: 1.2
% Inhibition GluN1^FATL/GluN3A ([1]; pH 7.4): 96%^a, (n = 22)
IC50 [1, 5]: 7.1 µM
minimum [1]: 4%
IC50 [1, 6]: 7.1 µM
rat GluN1-4a/GluN3B + CGP (100 × Idrug/Icontrol) [2]: 28% @ 10 μM drug
SMILES: COc1ccc(OCC(c2ccc(OC)cc2)N2Cc3ccccc3C2=O)cc1 (single isomer, unassigned; (+)) [(+) EU1180-438, 2-(2-(4-methoxyphenoxy)-1-(4-methoxyphenyl)ethyl)isoindolin-1-one]

SMILES: C[C@@H](NCc1cc(Br)cc2[nH]c(=O)c(=O)[nH]c12)P(=O)(O)O.Cl [CGP-78608, [(1S)-1-[[(7-bromo-1,2,3,4-tetrahydro-2,3-dioxo-5-quinoxalinyl)methyl]amino]ethyl] phosphonic acid hydrochloride]
effect on activation of GluN1/GluN3 receptors (GluN1/GluN3 receptors): dramatically enhance activation of GluN1/GluN3 receptors; also recorded: strongly enhance GluN1/GluN3A current responses

activity toward recombinant GluN1/GluN2 NMDA receptors (GluN2A-D) [3]: None of them showed any activity
hGluN1^FA,TL/hGluN3A (100 × Idrug/Icontrol) [1]: 67%
IC50 [1, 8]: 2.1 µM
SMILES: CCOc1ccc(OCC(c2ccc(OC(C)C)cc2)N2Cc3ccccc3C2=O)cc1 (centres unmarked) [EU1180-499, 2-(2-(4-ethoxyphenoxy)-1-(4-isopropoxyphenyl)ethyl)isoindolin-1-one]

activity toward recombinant GluN1/GluN2 NMDA receptors (GluN2A-D) [3]: None of them showed any activity
hGluN1^FA,TL/hGluN3A (100 × Idrug/Icontrol) [1]: 81%
SMILES: Cc1cccc(OCC(c2ccc(OC(C)C)cc2)N2Cc3ccc(Cl)cc3C2=O)n1 (centres unmarked) [EU1180-509, 6-chloro-2-(1-(4-isopropoxyphenyl)-2-((6-methylpyridin-2-yl)oxy)ethyl)isoindolin-1-one]

activity toward recombinant GluN1/GluN2 NMDA receptors (GluN2A-D) ([3]; 30 μM): no detectable activity
Max Inhibition [1]: 78%
IC50 [1, 7]: 10.8 µM
rat GluN1-4a/GluN3B + CGP (100 × Idrug/Icontrol) [2]: 42% @ 10 μM drug
IC50 [4]: 6.49 µM
SMILES: COc1ccc(OCC(c2ccccc2)N2Cc3ccccc3C2=O)cc1 (centres unmarked) [EU1180-487, 2-(2-(4-methoxyphenoxy)-1-phenyl-ethyl)isoindolin-1-one]

SMILES: NCC(=O)O [glycine]
EC50 (GluN1): 0.1 to 1 µM

activity toward recombinant GluN1/GluN2 NMDA receptors (GluN2A-D) ([3]; 30 μM): no detectable activity
Max Inhibition [1]: 88%
IC50 [1, 7]: 3.29 µM
rat GluN1-4a/GluN3B + CGP (100 × Idrug/Icontrol) [2]: 38% @ 10 μM drug
IC50 [4]: 3.43 µM
SMILES: COc1ccc(OCC(c2ccccc2)N2CCc3ccccc3C2=O)cc1 (centres unmarked) [EU1180-488, 2-(2-(4-methoxyphenoxy)-1-phenylethyl)-3,4-dihydroisoquinolin-1(2H)-one]

activity toward recombinant GluN1/GluN2 NMDA receptors (GluN2A-D) [3]: None of them showed any activity
remaining activity at 30 µM [1]: 94%
SMILES: Cc1cccc(OCC(c2ccc(OC(C)C)cc2)N2Cc3ccc(C(F)(F)F)cc3C2=O)n1 (centres unmarked) [EU1180-511]

activity toward recombinant GluN1/GluN2 NMDA receptors (GluN2A-D) [3]: None of them showed any activity
hGluN1^FA,TL/hGluN3A (100 × Idrug/Icontrol) [1]: 28%
IC50 [1, 8]: 3.93 µM
SMILES: Cc1cccc(OCC(c2ccc(OC(C)C)cc2)N2Cc3ccccc3C2=O)n1 (centres unmarked) [EU1180-508, 2-(1-(4-isopropoxyphenyl)-2-((6-methylpyridin-2-yl)oxy)ethyl)isoindolin-1-one]

activity toward recombinant GluN1/GluN2 NMDA receptors (GluN2A-D) [3]: None of them showed any activity
remaining activity at 30 µM [1]: 94%
SMILES: Cc1cccc(OCC(c2ccc(OC(C)C)cc2)N2Cc3cc(Cl)ccc3C2=O)n1 (centres unmarked) [EU1180-510, 5-chloro-2-(1-(4-isopropoxyphenyl)-2-((6-methylpyridin-2-yl)oxy)ethyl)isoindolin-1-one]
